In the supplement of paper PMC10307832:

Columns and labels:
Test in all cases: relative viability (nuclei count vs DMSO), 5 days (fraction); higher = more cells survive
[1] = compound: C[C@@H](C(=O)N[C@@H](C1CCCCC1)C(=O)N2CCC[C@H]2C(=O)N[C@@H]3[C@@H](CC4=CC=CC=C34)OCC#CC#CCO[C@@H]5CC6=CC=CC=C6[C@@H]5NC(=O)[C@@H]7CCCN7C(=O)[C@H](C8CCCCC8)NC(=O)[C@H](C)NC)NC [AZD5582] + Cc1nc(NC(=O)N2CCC[C@H]2C(N)=O)sc1-c1ccnc(C(C)(C)C(F)(F)F)c1 [Alpelisib] (partner 2 µM)
Method in brief: (§1)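 Each reported value is a median over duplicate plates. It expresses relative viability: treated-well nuclei count divided by vehicle-well nuclei count. Lung cancer cell lines in 1536-well plates were dosed by pin tool a day after seeding, alone with one drug or with a fixed anchor-drug dose plus five library-drug doses (not always all listed) in √10 steps, and nuclei were counted after 5 days.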

[2] = compound: C[C@@H](C(=O)N[C@@H](C1CCCCC1)C(=O)N2CCC[C@H]2C(=O)N[C@@H]3[C@@H](CC4=CC=CC=C34)OCC#CC#CCO[C@@H]5CC6=CC=CC=C6[C@@H]5NC(=O)[C@@H]7CCCN7C(=O)[C@H](C8CCCCC8)NC(=O)[C@H](C)NC)NC [AZD5582] + O=C(c1cc(Cc2n[nH]c(=O)c3ccccc23)ccc1F)N1CCN(C(=O)C2CC2)CC1 [Olaparib] (partner 8 µM)
Method in brief: as §1

[3] = compound: Cn1nnc2c(C(N)=O)ncn2c1=O [Temozolomide] + CC(C)C[C@H](NC(=O)[C@H](Cc1ccccc1)NC(=O)c1cnccn1)B(O)O [Bortezomib] (partner 0.002 µM)
Method in brief: as §1

[4] = compound: Cn1nnc2c(C(N)=O)ncn2c1=O [Temozolomide] + C[C@]1(O)C[C@@H](c2nc(-c3ccc4ccc(-c5ccccc5)nc4c3)c3c(N)nccn32)C1 [Linsitinib] (partner 1 µM)
Method in brief: as §1

| Cell Line | relative viability ([1]; first compound 0.005 µM) | relative viability ([1]; first compound 0.01581 µM) | relative viability ([1]; first compound 0.05 µM) | relative viability ([2]; first compound 0.01581 µM) | relative viability ([2]; first compound 0.05 µM) | relative viability ([3]; first compound 0.2 µM) | relative viability ([3]; first compound 0.6325 µM) | relative viability ([3]; first compound 2 µM) | relative viability ([3]; first compound 6.325 µM) | relative viability ([3]; first compound 20 µM) | relative viability ([4]; first compound 0.2 µM) | relative viability ([4]; first compound 0.6325 µM) | relative viability ([4]; first compound 2 µM) | relative viability ([4]; first compound 6.325 µM) | relative viability ([4]; first compound 20 µM) | relative viability ([1]; first compound 0.001581 µM) | relative viability ([2]; first compound 0.001581 µM) | relative viability ([2]; first compound 0.005 µM) |
| --- | --- | --- | --- | --- | --- | --- | --- | --- | --- | --- | --- | --- | --- | --- | --- | --- | --- | --- |
| RERF-LC-KJ | 0.532 | 0.781 | 0.639 | 0.852 | 0.691 | 1.13 | 1.3 | 1.17 | 1.09 | 1.08 | 0.928 | 0.888 | 0.948 | 0.982 | 0.868 |  |  |  |
| SK-LU-1 | 0.554 | 0.95 | 0.243 | 0.466 | 0.142 | 1.33 | 1.3 | 1.22 | 0.53 | 0.417 | 1.26 | 1.06 | 1.05 | 0.671 | 0.454 | 0.744 | 0.353 | 0.274 |
| SW 1573 | 0.705 | 0.673 | 1.01 | 0.628 | 0.684 | 0.949 | 1.12 | 1.05 | 1.19 | 1.18 | 0.74 | 0.738 | 0.737 | 0.579 | 0.659 | 0.856 | 0.376 | 0.523 |
| UMC-11 | 1.11 | 0.968 | 1.08 | 0.399 | 0.381 | 0.861 | 0.924 | 0.945 | 0.519 | 0.377 | 1 | 1.06 | 0.942 | 0.91 | 0.584 | 1.05 | 0.369 | 0.375 |
